Results published in ChEMBL document CHEMBL1156866 (J Med Chem, 2010).
Active and inactive are the calls of the source. No cut-off for these calls is given here.

Assays:
[1] = target: T1, Reduced folate transporter (Homo sapiens) (UniProt P41440); test: Displacement of [3H]MTX from human RFC expressed in Chinese hamster PC43-10 cells at 10 uM; format: cell-based
T1 sequence (whole entry): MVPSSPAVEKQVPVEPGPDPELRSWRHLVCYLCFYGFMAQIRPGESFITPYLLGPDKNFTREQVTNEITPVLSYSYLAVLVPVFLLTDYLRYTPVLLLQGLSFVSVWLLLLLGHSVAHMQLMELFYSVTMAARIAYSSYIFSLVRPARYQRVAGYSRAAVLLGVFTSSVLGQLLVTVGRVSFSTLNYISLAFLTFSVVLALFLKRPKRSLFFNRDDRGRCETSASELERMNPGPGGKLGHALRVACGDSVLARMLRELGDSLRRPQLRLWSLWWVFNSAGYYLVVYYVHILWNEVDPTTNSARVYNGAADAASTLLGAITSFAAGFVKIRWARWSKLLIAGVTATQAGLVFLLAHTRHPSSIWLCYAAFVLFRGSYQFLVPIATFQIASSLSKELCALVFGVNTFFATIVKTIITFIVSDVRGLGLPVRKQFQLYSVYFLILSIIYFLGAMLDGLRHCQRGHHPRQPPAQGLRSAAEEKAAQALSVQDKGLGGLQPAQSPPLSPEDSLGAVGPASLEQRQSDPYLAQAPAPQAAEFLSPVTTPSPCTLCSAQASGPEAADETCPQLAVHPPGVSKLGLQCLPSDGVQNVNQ

cells [2] = details: Cricetulus griseus, D4, 96 h
cells [3] = details: Cricetulus griseus, RT16, 96 h
cells [4] = details: Cricetulus griseus, 96 h
cells [5] = details: Cricetulus griseus, PC43-10, 96 h
KB [6] = test: Antitumor activity against human KB cells xenografted in folate deficient diet fed ICR SCID mouse assessed as tumor cell kill at 180 mg/kg, iv administered as Q4dx4 schedule starting from 29 days post tumor implantation; format: functional
R2 [7] = test: cells; details: Homo sapiens, R2, 96 h
cells [8] = details: Cricetulus griseus, RT16, 96 h; remark: listed apart in the source
KB [9] = test: Antitumor activity against human KB cells xenografted in folate deficient diet fed ICR SCID mouse assessed as tumor cell killing at 112.5 mg/kg, iv administered as Q4dx4 schedule starting from 29 days post tumor implantation; format: functional
KB [10] = test: Antitumor activity against human KB cells xenografted in folate deficient diet fed ICR SCID mouse assessed as tumor cell kill at 180 mg/kg, iv administered as Q4dx4 schedule starting from 4 days post tumor implantation; format: functional
IGROV-1 [11] = test: cells; details: Homo sapiens, IGROV-1, 96 h
KB [12] = test: cells; details: Homo sapiens, 96 h
R2 [13] = test: cells; details: Homo sapiens, R2, 96 h; remark: listed apart in the source
cells [14] = details: Cricetulus griseus, D4, 96 h; remark: listed apart in the source
[15] = target: Folate receptor beta (Homo sapiens) (UniProt P14207); test: Displacement of [3H]folic acid from human FRbeta expressed in Chinese hamster D4 cells relative to unlabeled folic acid; format: cell-based
[16] = target: Folate receptor alpha (Homo sapiens) (UniProt P15328); test: Displacement of [3H]folic acid from human FRalpha expressed in Chinese hamster RT16 cells relative to unlabeled folic acid; format: cell-based
IGROV-1 [17] = test: cells; details: Homo sapiens, IGROV-1, 96 h; remark: listed apart in the source
KB [18] = test: cells; details: Homo sapiens, 96 h; remark: listed apart in the source
[19] = target: T2, Proton-coupled folate transporter (Homo sapiens, UniProt Q96NT5); test: Displacement of [3H]MTX from human PCFT expressed in Chinese hamster R2 cells at pH 6.8 by Dixon plot; format: cell-based
T2 sequence (Q96NT5 whole entry): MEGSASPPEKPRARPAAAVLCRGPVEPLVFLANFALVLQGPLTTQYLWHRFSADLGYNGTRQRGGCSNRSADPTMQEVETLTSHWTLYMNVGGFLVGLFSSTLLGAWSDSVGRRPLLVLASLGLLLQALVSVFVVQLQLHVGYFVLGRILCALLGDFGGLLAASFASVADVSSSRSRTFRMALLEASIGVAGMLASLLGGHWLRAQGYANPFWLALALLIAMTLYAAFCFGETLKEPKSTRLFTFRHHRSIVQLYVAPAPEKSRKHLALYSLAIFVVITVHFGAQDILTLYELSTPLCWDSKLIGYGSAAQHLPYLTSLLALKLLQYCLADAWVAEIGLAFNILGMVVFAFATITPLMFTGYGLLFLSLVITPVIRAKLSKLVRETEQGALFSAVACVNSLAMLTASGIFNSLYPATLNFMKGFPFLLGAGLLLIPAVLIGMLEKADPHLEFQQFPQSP

[20] = target: T2, Proton-coupled folate transporter; test: Displacement of [3H]MTX from human PCFT expressed in Chinese hamster R2 cells at pH 5.5 by Dixon plot; format: cell-based

Chain of Folate receptor beta (Homo sapiens) (P14207 17-230 limits assumed): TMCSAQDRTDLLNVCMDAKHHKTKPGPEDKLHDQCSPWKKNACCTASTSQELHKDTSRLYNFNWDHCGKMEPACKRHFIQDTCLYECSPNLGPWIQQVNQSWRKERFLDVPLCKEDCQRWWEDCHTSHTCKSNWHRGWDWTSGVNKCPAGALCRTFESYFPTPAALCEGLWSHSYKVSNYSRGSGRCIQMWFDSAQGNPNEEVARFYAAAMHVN
Chain of Folate receptor alpha (Homo sapiens) (P15328 25-234 limits assumed): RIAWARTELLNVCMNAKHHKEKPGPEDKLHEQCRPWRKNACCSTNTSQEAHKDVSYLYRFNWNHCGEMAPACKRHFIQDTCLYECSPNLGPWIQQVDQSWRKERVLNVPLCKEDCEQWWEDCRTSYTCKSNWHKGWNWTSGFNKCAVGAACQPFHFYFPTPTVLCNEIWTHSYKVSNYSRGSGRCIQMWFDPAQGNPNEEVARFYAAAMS

In the case of Nc1nc2[nH]c(CCCCc3ccc(C(=O)N[C@@H](CCC(=O)O)C(=O)O)s3)cc2c(=O)[nH]1, the Activity [1] is reported as “inactive”, the IC50 (cells [2]) is reported as greater than 1000 nM and the IC50 (cells [3]) is reported as greater than 1000 nM. It also gave an IC50 (cells [4]) greater than 1000 nM, an IC50 (cells [5]) greater than 1000 nM and an LCK (KB [6]) of 3.7. The IC50 (R2 [7]) was greater than 1000 nM, the IC50 (cells [8]) was 1.82 nM and the LCK (KB [9]) was 3.8. For the same compound, the LCK (KB [10]) was 3.5, the IC50 (IGROV-1 [11]) was greater than 1000 nM and the IC50 (KB [12]) was greater than 1000 nM. The IC50 (R2 [13]) was 43.4 nM.

In the case of Nc1nc2[nH]c(CCCCCCc3ccc(C(=O)N[C@@H](CCC(=O)O)C(=O)O)s3)cc2c(=O)[nH]1, the Activity [1] is reported as “inactive”, the IC50 (cells [2]) is reported as greater than 1000 nM and the IC50 (cells [4]) is reported as greater than 1000 nM. It also gave an IC50 (cells [14]) greater than 1000 nM, a relative binding affinity (RBA) [15] of 0.4 and a relative binding affinity (RBA) [16] of 0.6.

With Nc1nc2c(c(=O)[nH]1)C[C@@H](CCc1ccc(C(=O)N[C@@H](CCC(=O)O)C(=O)O)cc1)CN2 the inhibition [1] was greater than 50%, the Activity [15] was “Active” and the Activity [16] was “Active”.

Nc1nc(N)c2nc(CNc3ccc(C(=O)N[C@@H](CCCNC(=O)c4ccccc4C(=O)O)C(=O)O)cc3)cnc2n1 [TALOTREXIN] gave an IC50 (cells [3]) of 864 nM, an IC50 (cells [4]) greater than 1000 nM and an IC50 (cells [5]) of 1.28 nM. The IC50 (R2 [7]) was greater than 1000 nM, the IC50 (cells [8]) was 409 nM and the IC50 (IGROV-1 [17]) was 3.47 nM. The IC50 (KB [18]) was 5.26 nM, the IC50 (IGROV-1 [11]) was 2.47 nM and the IC50 (R2 [13]) was greater than 1000 nM.

For Nc1nc2[nH]c(CCCCCc3ccc(C(=O)N[C@@H](CCC(=O)O)C(=O)O)s3)cc2c(=O)[nH]1, the Activity [1] was “inactive”, the IC50 (cells [2]) was greater than 1000 nM and the IC50 (cells [4]) was greater than 1000 nM. It also gave a Ki [19] of 2230 nM, a relative binding affinity (RBA) [15] of 1.1 and an IC50 (R2 [13]) of 101 nM. The relative binding affinity (RBA) [16] was 0.9 and the Ki [20] was 100 nM.

In the case of Nc1nc2[nH]cc(CCc3ccc(C(=O)N[C@@H](CCC(=O)O)C(=O)O)cc3)c2c(=O)[nH]1, the inhibition [1] is reported as greater than 50% and the Activity [15] is reported as “inactive”.

Nc1nc(=O)c2c([nH]1)NCC(CNc1ccc(C(=O)N[C@@H](CCC(=O)O)C(=O)O)cc1)N2C=O (mixture of isomers) showed an inhibition [1] greater than 50%.

With CN(Cc1cnc2nc(N)nc(N)c2n1)c1ccc(C(=O)N[C@@H](CCC(=O)O)C(=O)O)cc1 the Activity [15] was “inactive” and the Activity [16] was “inactive”.

Work on Cc1nc(=O)c2cc(CN(C)c3ccc(C(=O)N[C@@H](CCC(=O)O)C(=O)O)s3)ccc2[nH]1 yielded an inhibition [1] greater than 50%.
